Test results from the supplement of paper PMC11208160.

Test: recombinant UMI read abundance after kanamycin selection (control-corrected) (log10(CPM+1)); higher = more efficient recombination; extreme values may be limits of the assay; sequences stand for … in AGTGCAGAGAAAATCGGCCAGTTTTCTCTGCCTGCAGTCCGCATGCCGTGGGACCCCTTGGGTTCTAACCTGTTGCCTAGATTTATGCAGCGGACTGCCTTTCTCCCAAAGTGATAAACCGG…AGGTTGGTTTCACT; site = the 11-nt donor
Protocol: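 Pooled E. coli donor-specificity screen for the IS621 bridge recombinase. Each library member carries a reprogrammed 11-nt donor and a full-length LE bridge RNA expressed in cis from the natural promoter, with a paired donor-binding loop (8-nt LDG + 4-nt RDG) and a target-binding loop fixed to T5. It is co-electroporated with a T5 target plasmid; recombinase is induced with 0.07 mM IPTG and recombinants are selected on kanamycin. UMIs are counted as CPM, averaged over two biological replicates and corrected by the unselected control. Molecule = full bridge RNA written as DNA, built from the T5 scaffold: LDG = donor specificity nt 1-8, RDG = reverse complement of nt 8-11.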
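Also: IS621 bridge recombinase in Escherichia coli cells against a fixed T5 target plasmid.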

| Sequence | recombinant UMI read abundance (log10) |
| --- | --- |
| ACTTCGCCATGGACCGGTTTTCCCGGTAATCCGTATTTGCT (site ACTTCGCCTAG) | 0.0122 |
| ACTTGATCATGGACCGGTTTTCCCGGTAATCCGTATTTGGC (site ACTTGATCTGC) | 1.24 |
| ACTTGCCCATGGACCGGTTTTCCCGGTAATCCGTATTTGAT (site ACTTGCCCTAT) | 0.398 |
| ACTTGCCCATGGACCGGTTTTCCCGGTAATCCGTATTTGAT (site CCTTGCCCTAT) | 0.0521 |
| ACTTGCCCATGGACCGGTTTTCCCGGTAATCCGTATTTGAT (site GCTTGCCCTAT) | 0.0168 |
| ACTTGCCCATGGACCGGTTTTCCCGGTAATCCGTATTTGAT (site TCTTGCCCTAT) | 0.0192 |
| ACTTTGGCATGGACCGGTTTTCCCGGTAATCCGTATTTGTA (site ACTTTGGCTTA) | 1.26 |
| AGAAAACCATGGACCGGTTTTCCCGGTAATCCGTATTTGCG (site AGAAAACCTCG) | 0 |
| AGAAACGCATGGACCGGTTTTCCCGGTAATCCGTATTTGCT (site AGAAAAGCTAG) | 1.84 |
| AGAAACGCATGGACCGGTTTTCCCGGTAATCCGTATTTGCT (site AGAAACGCTAG) | 2.81 |
| AGAAACGCATGGACCGGTTTTCCCGGTAATCCGTATTTGCT (site AGAAAGGCTAG) | 0 |
| AGAAACGCATGGACCGGTTTTCCCGGTAATCCGTATTTGCT (site AGAAATGCTAG) | 0 |
| AGAAAGACATGGACCGGTTTTCCCGGTAATCCGTATTTGCG (site AGAAAGACTCG) | 2.63 |
| AGAAAGACATGGACCGGTTTTCCCGGTAATCCGTATTTGCG (site AGGAAGACTTG) | 0 |
| AGAAAGGCATGGACCGGTTTTCCCGGTAATCCGTATTTGCG (site AGAAAGGCTAG) | 1.07 |
| AGAAAGGCATGGACCGGTTTTCCCGGTAATCCGTATTTGCG (site AGAAAGGCTCG) | 1.64 |
| AGAAAGGCATGGACCGGTTTTCCCGGTAATCCGTATTTGCG (site AGAAAGGCTGG) | 0 |
| AGAAAGGCATGGACCGGTTTTCCCGGTAATCCGTATTTGCG (site AGAAAGGCTTG) | 1.15 |
| AGAAAGGCATGGACCGGTTTTCCCGGTAATCCGTATTTGCT (site AAAAAGGCTAG) | 0 |
| AGAAAGGCATGGACCGGTTTTCCCGGTAATCCGTATTTGCT (site ACAAAGGCTAG) | 0.00966 |
| AGAAAGGCATGGACCGGTTTTCCCGGTAATCCGTATTTGCT (site AGAAAAGCTAG) | 0 |
| AGAAAGGCATGGACCGGTTTTCCCGGTAATCCGTATTTGCT (site AGAAACGCTAG) | 0 |

| Sequence | recombinant UMI read abundance (log10) |
| --- | --- |
| AGAAAGGCATGGACCGGTTTTCCCGGTAATCCGTATTTGCT (site AGAAAGACTAG) | 0 |
| AGAAAGGCATGGACCGGTTTTCCCGGTAATCCGTATTTGCT (site AGAAAGCCTAG) | 0 |
| AGAAAGGCATGGACCGGTTTTCCCGGTAATCCGTATTTGCT (site AGAAAGGCTAA) | 0.446 |
| AGAAAGGCATGGACCGGTTTTCCCGGTAATCCGTATTTGCT (site AGAAAGGCTAC) | 0.019 |
| AGAAAGGCATGGACCGGTTTTCCCGGTAATCCGTATTTGCT (site AGAAAGGCTAG) | 2.58 |
| AGAAAGGCATGGACCGGTTTTCCCGGTAATCCGTATTTGCT (site AGAAAGGCTAT) | 1.27 |
| AGAAAGGCATGGACCGGTTTTCCCGGTAATCCGTATTTGCT (site AGAAAGGCTCG) | 1.65 |
| AGAAAGGCATGGACCGGTTTTCCCGGTAATCCGTATTTGCT (site AGAAAGGCTGG) | 0.262 |
| AGAAAGGCATGGACCGGTTTTCCCGGTAATCCGTATTTGCT (site AGAAAGGCTTG) | 0 |
| AGAAAGGCATGGACCGGTTTTCCCGGTAATCCGTATTTGCT (site AGAAAGTCTAG) | 0 |
| AGAAAGGCATGGACCGGTTTTCCCGGTAATCCGTATTTGCT (site AGAAATGCTAG) | 0 |
| AGAAAGGCATGGACCGGTTTTCCCGGTAATCCGTATTTGCT (site AGAACGGCTAG) | 0.235 |
| AGAAAGGCATGGACCGGTTTTCCCGGTAATCCGTATTTGCT (site AGAAGGGCTAG) | 0.224 |
| AGAAAGGCATGGACCGGTTTTCCCGGTAATCCGTATTTGCT (site AGAATGGCTAG) | 0 |
| AGAAAGGCATGGACCGGTTTTCCCGGTAATCCGTATTTGCT (site AGACAGGCTAG) | 0 |
| AGAAAGGCATGGACCGGTTTTCCCGGTAATCCGTATTTGCT (site AGAGAGGCTAG) | 0.846 |
| AGAAAGGCATGGACCGGTTTTCCCGGTAATCCGTATTTGCT (site AGATAGGCTAG) | 1.23 |
| AGAAAGGCATGGACCGGTTTTCCCGGTAATCCGTATTTGCT (site AGCAAGGCTAG) | 0 |
| AGAAAGGCATGGACCGGTTTTCCCGGTAATCCGTATTTGCT (site AGGAAGGCTAG) | 1.73 |
| AGAAAGGCATGGACCGGTTTTCCCGGTAATCCGTATTTGCT (site AGTAAGGCTAG) | 1.3 |
| AGAAAGGCATGGACCGGTTTTCCCGGTAATCCGTATTTGCT (site ATAAAGGCTAG) | 0 |
| AGAAAGGCATGGACCGGTTTTCCCGGTAATCCGTATTTGCT (site CGAAAGGCTAG) | 0.48 |

| Sequence | recombinant UMI read abundance (log10) |
| --- | --- |
| AGAAAGGCATGGACCGGTTTTCCCGGTAATCCGTATTTGCT (site GGAAAGGCTAG) | 0.0101 |
| AGAAAGGCATGGACCGGTTTTCCCGGTAATCCGTATTTGCT (site TGAAAGGCTAG) | 0.932 |
| AGAAAGTCATGGACCGGTTTTCCCGGTAATCCGTATTTGCT (site AGAAAGACTAG) | 0 |
| AGAAAGTCATGGACCGGTTTTCCCGGTAATCCGTATTTGCT (site AGAAAGCCTAG) | 0 |
| AGAAAGTCATGGACCGGTTTTCCCGGTAATCCGTATTTGCT (site AGAAAGGCTAG) | 0 |
| AGAAAGTCATGGACCGGTTTTCCCGGTAATCCGTATTTGCT (site AGAAAGTCTAG) | 2.63 |
| AGAACAACATGGACCGGTTTTCCCGGTAATCCGTATTTGTG (site AGAACAACTCA) | 1.29 |
| AGAATCACATGGACCGGTTTTCCCGGTAATCCGTATTTGAA (site AGAATCACTTT) | 2.16 |
| AGACGAACATGGACCGGTTTTCCCGGTAATCCGTATTTGGA (site AGACGAACTTC) | 1.82 |
| AGACGCACATGGACCGGTTTTCCCGGTAATCCGTATTTGAA (site AGACGCACTTT) | 1.43 |
| AGACGCGCATGGACCGGTTTTCCCGGTAATCCGTATTTGTA (site AGACGCGCTTA) | 2.72 |
| AGACGGTCATGGACCGGTTTTCCCGGTAATCCGTATTTGGC (site AGACGGTCTGC) | 3.28 |
| AGACTAACATGGACCGGTTTTCCCGGTAATCCGTATTTGCT (site AGACTAACTAG) | 2.61 |
| AGACTAGCATGGACCGGTTTTCCCGGTAATCCGTATTTGTT (site AGACTAGCTAA) | 1.07 |
| AGACTAGCATGGACCGGTTTTCCCGGTAATCCGTATTTGTT (site AGCCTAGCTAA) | 0.00926 |
| AGACTAGCATGGACCGGTTTTCCCGGTAATCCGTATTTGTT (site AGGCTAGCTAA) | 0.0149 |
| AGACTAGCATGGACCGGTTTTCCCGGTAATCCGTATTTGTT (site AGTCTAGCTAA) | 0.0145 |
| AGAGACGCATGGACCGGTTTTCCCGGTAATCCGTATTTGAG (site AGAGACGCTCT) | 2.67 |
| AGAGAGACATGGACCGGTTTTCCCGGTAATCCGTATTTGCA (site AGAGAGACTTG) | 2.98 |
| AGAGAGACATGGACCGGTTTTCCCGGTAATCCGTATTTGCA (site AGGAAGACTTG) | 1.56 |
| AGAGAGGCATGGACCGGTTTTCCCGGTAATCCGTATTTGCT (site AGAAAGGCTAG) | 2.43 |
